Test results reported in US8461389B2, “Psycho-pharmaceuticals” (University College Dublin, National University of Ireland, …, priority 2008, dated 2013).

Test system: rat pyloric muscle
Assay: Electrical field stimulation (EFS)-mediated relaxation of isolated pyloric muscle
Details: 25 μM Captodiamine; 10 min treatment, 10 μM-100 μM tested
Procedure: Inhibition of pyloric relaxation by administration of captodiamine was performed as described in Kashyap P., Micci M., Pasricha S., Pasricha P., The D2/D3 Agonist PD 128907 (R-(+)-trans-3,4a,10b-Tetrahydro-4-Propyl-2H,5H-[1]Benzopyrano[4,3-b]-1,4-Oxazin-9-ol) Inhibits Stimulated Pyloric Relaxation and Spontaneous Gastric Emptying, 2007, Digestive Diseases and Sciences.
Male Wistar rats were killed by cervical dislocation and decapitation. The stomach was removed and placed in oxygenated Krebs buffer (118 mM NaCl, 4.7 mM KCl, 1.2 mM KH2PO4, 1.2 mM MgSO4, 4.2 mM NaHCO3, 2 mM CaCl2, 10 mM glucose, 200 μM sulphinpyrazone and 10 mM Hepes, pH 7.4). […] The tissue was cut longitudinally along the mesenteric border and trimmed to 2 mm in width. At one end, the tissue was mounted onto an L-shaped electrode and placed into a 25 ml chamber containing Krebs buffer, maintained at 37° C. and continuously bubbled with 95% O2/5% CO2. The other end of the tissue was attached to an isometric force transducer using string sutured to tissue. Tension was monitored, recorded and analyzed by a digital recording device (PowerLab and Chart 5, ADInstruments). […] Spontaneous contraction of the pyloric strips were observed and recorded following the equilibration phase. […] The weight of the tissue was measured at the end of each session. […]

CCCCSc1ccc(C(SCCN(C)C)c2ccccc2)cc1 (stereo not shown) [Captodiamine, 2-[(4-butylsulfanylphenyl)-phenyl-methyl]sulfanyl-N,N-dimethyl-ethanamin]
effect on EFS-mediated relaxation of the rat pyloric muscle: attenuation of the EFS-mediatated relaxation
